Values quoted from earlier work, collected in patent US20220403162A1, “POLYURETHANE COMPOSITIONS SALTED WITH BISBIGUANIDE” (Lubrizol Advanced Materials, Inc., priority 2019, published 2022).

## N=C(NCCCCCCNC(=N)NC(=N)Nc1ccc(Cl)cc1)NC(=N)Nc1ccc(Cl)cc1.O=C(O)[C@H](O)[C@@H](O)[C@H](O)[C@H](O)CO.O=C(O)[C@H](O)[C@@H](O)[C@H](O)[C@H](O)CO [CHG, chlorhexidine digluconate]
The Merck Index
  solubility in water: at least 50%

## [H]/N=C(\N/C(=N/[H])NCCCCCCNC(=N)NC(=N)Nc1ccc(Cl)cc1)Nc1ccc(Cl)cc1 [Chlorhexidine, 1,6-bis(4-chloro-phenylbiguanido)hexane]
Quoted from US 2004/0052831 A1
  solubility in water or alcohol: not soluble
